Data reported in PMC7048748, “Anxiolytic Drug FGIN-1-27 Ameliorates Autoimmunity by Metabolic Reprogramming of Pathogenic Th17 Cells” (Scientific Reports, 2020).

Key:
[1] = tested on: Th17 cells from TSPO KO mice; assay: Th17 differentiation with CD4 T cells from TSPO knockout mice; assay type: cell-based, mouse; settings: compared with T cells expressing TSPO
Source text: We explored the mechanism of action for FGIN-1-27 and whether the effect of FGIN-1-27 on Th17 differentiation was driven by TSPO, the reported target of this compound. We used two approaches: first, we investigated the correlation between FGIN-1-27 induced IL-17 down-regulation and binding to TSPO. For the binding studies, we used a biochemical radio ligand displacement assay with the well-characterized TSPO ligand PK-11195 as a tracer. […] Secondly, we purified CD4^+ T cells from spleen and lymph nodes of mice that lacked global expression of TSPO (TSPO KO mice)[19]. We added FGIN-1-27 to the cultures of CD4^+ T cells from controls or TSPO KO mice that were induced towards the Th17 differentiation program.
Figure 3 Effect of FGIN-1-27 on Th17 Differentiation is Independent of TSPO. (a) Plot showing correlation between binding of FGIN-1-27 to TSPO and effect on IL-17 production. Binding of FGIN-1-27 to TSPO was measured using a biochemical radiolabeled displacement assay and radiolabeled PK-11195 was used as a control ligand. (b) Immunoblot to detect TSPO from spleens of either control or TSPO knockout mice (upper panel) and dose response plot for FGIN-1-27 showing effect on Th17 differentiation using purified CD4 T cells from spleens of either control or TSPO knockout mice. IL-17 production was normalized using DMSO treatment from control cells as 100%. […]

Th17 cells = assay: Cholesterol panel (sterols) in Th17 cells; assay type: cell-based, mouse; settings: 72 hours; for 7-DHC / 7-HC / -SITO / CAMP / CHOL / COPR / CSTN: Cholestanol / DESM / LANO / LATH / SQUA / STIG / ZYMO: Cell
Experimental: Specific cholesterol precursors like desmosterol and oxysterols, such as 7β, 27-dihydroxycholesterol (7β, 27-OHC), have been identified as ligands for RORγt[21],[22] and shown to modulate Th17 differentiation. […] Next, we extended our studies to lipid metabolites and profiled the lipidome of Th17 cells treated with DMSO or FGIN-1-27. […]
(a) Indicated sterols were measured in Th17 cells treated with DMSO or FGIN-1-27 for
(1 picture or pasted object on this page, not shown here)

[2] = tested on: experimental autoimmune encephalomyelitis (EAE); assay: Active EAE induced with MOG peptide 35-55; assay type: in vivo, mouse; settings: 30 mg/kg intraperitoneal twice daily for 7 days

Structure (SMILES): CCCCCCN(CCCCCC)C(=O)Cc1c(-c2ccc(F)cc2)[nH]c2ccccc12 [FGIN-1-27, N, N-di-n-hexyl 2-(4-fluorophenyl) indole-3-acetamide]
- Th17 differentiation in T cells from TSPO KO mice [1]: similarly to T cells expressing TSPO
- levels of cholesterol, its precursors and oxysterols (Th17 cells; vs DMSO): comparable
- 7-DHC (Th17 cells): 21.45 nMoles/billion
- 7-HC (Th17 cells): 0.68 nMoles/billion
- -SITO (Th17 cells): 1.81 nMoles/billion
- CAMP (Th17 cells): 4.37 nMoles/billion
- CHOL (Th17 cells): 1426.96 nMoles/billion
- COPR (Th17 cells): 0.37 nMoles/billion
- CSTN: Cholestanol (Th17 cells): 2.54 nMoles/billion
- DESM (Th17 cells): 26.06 nMoles/billion
- LANO (Th17 cells): 0.57 nMoles/billion
- LATH (Th17 cells): 10.58 nMoles/billion
- SQUA (Th17 cells): 13.58 nMoles/billion
- STIG (Th17 cells): 0.09 nMoles/billion
- ZYMO (Th17 cells): 0.37 nMoles/billion
- 7-DHC (Th17 cells; listed as FGIN2): 29.74 nMoles/billion
- 7-HC (Th17 cells; listed as FGIN2): 1.01 nMoles/billion
- -SITO (Th17 cells; listed as FGIN2): 66.45 nMoles/billion
- CAMP (Th17 cells; listed as FGIN2): 6.00 nMoles/billion
- CHOL (Th17 cells; listed as FGIN2): 1968.79 nMoles/billion
- COPR (Th17 cells; listed as FGIN2): 0.04 nMoles/billion
- CSTN: Cholestanol (Th17 cells; listed as FGIN2): 5.53 nMoles/billion
- DESM (Th17 cells; listed as FGIN2): 47.55 nMoles/billion
- LANO (Th17 cells; listed as FGIN2): 0.96 nMoles/billion
- LATH (Th17 cells; listed as FGIN2): 13.90 nMoles/billion
- SQUA (Th17 cells; listed as FGIN2): 16.54 nMoles/billion
- STIG (Th17 cells; listed as FGIN2): 8.18 nMoles/billion
- ZYMO (Th17 cells; listed as FGIN2): 0.44 nMoles/billion
- 7-DHC (Th17 cells; listed as FGIN3): 22.18 nMoles/billion
- 7-HC (Th17 cells; listed as FGIN3): 1.04 nMoles/billion
- -SITO (Th17 cells; listed as FGIN3): 2.54 nMoles/billion
- CAMP (Th17 cells; listed as FGIN3): 7.76 nMoles/billion
- CHOL (Th17 cells; listed as FGIN3): 2113.85 nMoles/billion
- COPR (Th17 cells; listed as FGIN3): 0.0757 nMoles/billion
- CSTN: Cholestanol (Th17 cells; listed as FGIN3): 4.07 nMoles/billion
- DESM (Th17 cells; listed as FGIN3): 37.52 nMoles/billion
- LANO (Th17 cells; listed as FGIN3): 0.93 nMoles/billion
- LATH (Th17 cells; listed as FGIN3): 15.86 nMoles/billion
- SQUA (Th17 cells; listed as FGIN3): 17.48 nMoles/billion
- STIG (Th17 cells; listed as FGIN3): 0.73 nMoles/billion
- ZYMO (Th17 cells; listed as FGIN3): 0.68 nMoles/billion
- 7-DHC (Th17 cells; listed as FGIN4): 17.23 nMoles/billion
- 7-HC (Th17 cells; listed as FGIN4): 0.75 nMoles/billion
- -SITO (Th17 cells; listed as FGIN4): 1.38 nMoles/billion
- CAMP (Th17 cells; listed as FGIN4): 4.69 nMoles/billion
- CHOL (Th17 cells; listed as FGIN4): 1456.01 nMoles/billion
- COPR (Th17 cells; listed as FGIN4): 0.06 nMoles/billion
- CSTN: Cholestanol (Th17 cells; listed as FGIN4): 2.93 nMoles/billion
- DESM (Th17 cells; listed as FGIN4): 26.10 nMoles/billion
- LANO (Th17 cells; listed as FGIN4): 0.61 nMoles/billion
- LATH (Th17 cells; listed as FGIN4): 10.88 nMoles/billion
- SQUA (Th17 cells; listed as FGIN4): 2.92 nMoles/billion
- STIG (Th17 cells; listed as FGIN4): 0.05 nMoles/billion
- ZYMO (Th17 cells; listed as FGIN4): 0.40 nMoles/billion
- onset or severity of the symptoms [2]: did not affect onset or severity
